Experimental data from PubChem BioAssay (NCI).
Several values for one entry are separate records, joined by “and”; a condition that tells them apart may be missing. Equal entries are not always repeated.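 In this assay, cells in 96-well plates receive the compound at five concentrations for 48 hours. Endpoints are linearly interpolated between the surrounding concentrations. The concentration for 50% growth inhibition is given as GI50. TGI is the concentration that stops growth completely.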

Experiments:
Test in all cases: NCI tumour cell line growth inhibition, 48 h
PC-3 prostate = tested on: PC-3 prostate
COLO 205 colon = tested on: COLO 205 colon
NCI-H522 lung = tested on: NCI-H522 lung
LOX IMVI melanoma = tested on: LOX IMVI melanoma
MCF7 breast = tested on: MCF7 breast
SF-295 CNS = tested on: SF-295 CNS
SF-539 CNS = tested on: SF-539 CNS
SW-620 colon = tested on: SW-620 colon
DU-145 prostate = tested on: DU-145 prostate
OVCAR-4 ovarian = tested on: OVCAR-4 ovarian

Compound	TGI (PC-3 prostate)	TGI (COLO 205 colon)	TGI (NCI-H522 lung)	TGI (LOX IMVI melanoma)	TGI (MCF7 breast)	TGI (SF-295 CNS)	TGI (SF-539 CNS)	TGI (SW-620 colon)	TGI (DU-145 prostate)	TGI (OVCAR-4 ovarian)	GI50 (PC-3 prostate)	GI50 (COLO 205 colon)	GI50 (NCI-H522 lung)	GI50 (LOX IMVI melanoma)	GI50 (MCF7 breast)	GI50 (SF-295 CNS)	GI50 (SF-539 CNS)	GI50 (SW-620 colon)	GI50 (DU-145 prostate)	GI50 (OVCAR-4 ovarian)
O=P(NC12CC3CC(CC(C3)C1)C2)(N1CC1)N1CC1	> 100 µM	> 100 µM	> 100 µM	> 100 µM	> 100 µM	> 100 µM	75.5 µM	> 100 µM	> 100 µM	> 100 µM										
O=C([O][Hg][CH2]C1COC([CH2][Hg][O]C(=O)c2ccccc2)CO1)c1ccccc1 (centres undefined)		4.25 µM and 5.21 µM	3.78 µM and 4.64 µM	4.85 µM and 3.11 µM	19.8 µM and 2.87 µM	41.7 µM and 31.6 µM	29.7 µM and 30.5 µM	3.04 µM	33 µM	25.2 µM	15.3 µM	1.98 µM and 1.07 µM	1.47 µM and 1.14 µM	1.89 µM and 1.66 µM	3.69 µM and 1.16 µM	19.2 µM and 17.8 µM	15.8 µM and 14.4 µM	1.64 µM	18.8 µM	11.3 µM
O=C(CF)N(O)c1ccc(/C=C/c2ccccc2)cc1	> 100 µM	> 100 µM	> 100 µM	> 100 µM	> 100 µM	11.4 µM	52.9 µM	> 100 µM	6.96 µM	> 66.9 µM	5.6 µM	5.83 µM	12.8 µM	2.53 µM	0.304 µM	1.74 µM	8.17 µM	1.3 µM	1.48 µM	5.49 µM
Cn1nnnc1N/N=C/c1ccccc1	> 10 µM	> 10 µM	> 10 µM	> 10 µM	> 10 µM	> 10 µM	> 10 µM	> 10 µM	> 10 µM	> 10 µM										
Cc1cccc(C(=O)/C=C/SC(=NC#N)SCc2ccccc2)c1	50.8 µM	> 100 µM	> 100 µM	> 100 µM	> 100 µM	88.6 µM	31.7 µM	> 100 µM	46.4 µM	> 100 µM	16.4 µM	33.6 µM	27.1 µM	26.9 µM	34.3 µM	21.2 µM	6.67 µM	6.45 µM	19.7 µM	> 100 µM
O=C1C2=Nc3ccccc3C(O)N2c2ccccc21 (centres undefined)	> 100 µM	> 100 µM	32.6 µM	13.1 µM	> 100 µM	> 100 µM	> 100 µM	> 100 µM	> 100 µM	> 100 µM										
O=C(Nc1ccc(Cl)cc1F)c1cc(I)ccc1O	6.36 µM	17.5 µM	10.5 µM	6.79 µM	18.5 µM	3.75 µM	5.78 µM	13.6 µM	47.9 µM	15.5 µM	2.07 µM	4.52 µM	1.14 µM	1.42 µM	2.38 µM	1.89 µM	1.1 µM	2.44 µM	3.1 µM	2.04 µM
